Source: ChEMBL document CHEMBL1201862, “PubChem BioAssay data set” (2004)
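Growth conditions: 96-well plates. Treatment: test compound, 48 hours, 5 concentrations. Analysis: linear interpolation between bracketing concentrations; unreached endpoints set to highest concentration. GI50 is the concentration that inhibits growth by half.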 The source made the active and inactive calls. Rule as the data show it: active = GI50 up to about 1.1 µM and inactive = higher.

Tests used:
Assay in all cases: growth of human tumour cells (NCI), 48 h
HT-29 = tested on: HT-29
HCT-116 = tested on: HCT-116
IGROV-1 = tested on: IGROV-1
EKVX = tested on: EKVX
T47D = tested on: T47D
SK-MEL-5 = tested on: SK-MEL-5
K562 = tested on: K562
786-0 = tested on: 786-0
MOLT-4 = tested on: MOLT-4
NCI/ADR-RES = tested on: NCI/ADR-RES
HCT-15 = tested on: HCT-15
SF-295 = tested on: SF-295
MDA-MB-231 = tested on: MDA-MB-231
HOP-62 = tested on: HOP-62
SNB-19 = tested on: SNB-19
NCI-H460 = tested on: NCI-H460
SF-268 = tested on: SF-268
DU-145 = tested on: DU-145
Hs-578T = tested on: Hs-578T

Row | Compound | GI50 (HT-29) | GI50 (HCT-116) | GI50 (IGROV-1) | GI50 (EKVX) | GI50 (T47D) | GI50 (SK-MEL-5) | GI50 (K562) | GI50 (786-0) | GI50 (MOLT-4) | GI50 (NCI/ADR-RES) | GI50 (HCT-15) [µM] | GI50 (SF-295) | GI50 (MDA-MB-231) | GI50 (HOP-62) | GI50 (SNB-19) | GI50 (NCI-H460) | GI50 (SF-268) | GI50 (DU-145) | GI50 (Hs-578T)
1 | O=c1c2ccc(Cl)cc2oc2c(CNc3ccc(S(=O)(=O)Nc4ncccn4)cc3)cccc12 | > 100 µM (inactive) | > 100 µM (inactive) | > 100 µM (inactive) | > 100 µM (inactive) | > 100 µM (inactive) | > 100 µM (inactive) | > 100 µM (inactive) | > 100 µM (inactive) | > 100 µM (inactive) | > 100 µM (inactive) | > 100 | > 100 µM (inactive) | > 100 µM (inactive) | 90.8 µM (inactive) | > 100 µM (inactive) | – | – | – | –
2 | COc1ccc(C2=NN(C(=O)COc3ccc(Cl)cc3)C(O)(c3ccc(Cl)cc3)C2)cc1 (centres undefined) | > 100 µM (inactive) | > 100 µM (inactive) | > 100 µM (inactive) | – | – | – | > 100 µM (inactive) | > 100 µM (inactive) | > 100 µM (inactive) | – | > 100 | > 100 µM (inactive) | – | > 100 µM (inactive) | > 100 µM (inactive) | > 100 µM (inactive) | > 100 µM (inactive) | – | –
3 | CN(C)Cc1cc(C=O)cc(CN(C)C)c1O | > 100 µM (inactive) | > 100 µM (inactive) | > 100 µM (inactive) | > 100 µM (inactive) | – | > 100 µM (inactive) | > 100 µM (inactive) | > 100 µM (inactive) | > 100 µM (inactive) | > 100 µM (inactive) | > 100 | > 100 µM (inactive) | > 100 µM (inactive) | > 100 µM (inactive) | > 100 µM (inactive) | > 100 µM (inactive) | > 100 µM (inactive) | > 100 µM (inactive) | > 100 µM (inactive)
4 | Cc1cc2c(=O)cc(-c3cccs3)oc2c(C(=O)O)c1C | > 100 µM (inactive) | > 100 µM (inactive) | > 100 µM (inactive) | > 100 µM (inactive) | – | > 100 µM (inactive) | 35.8 µM (inactive) | > 100 µM (inactive) | > 100 µM (inactive) | – | 42.8 | > 100 µM (inactive) | – | > 100 µM (inactive) | > 100 µM (inactive) | > 100 µM (inactive) | 34.2 µM (inactive) | – | –
5 | CSc1nc(-c2cc3c(c(SC)n2)CCC3)cc2c1CCC2 | > 100 µM (inactive) | > 100 µM (inactive) | – | > 100 µM (inactive) | – | > 100 µM (inactive) | > 100 µM (inactive) | > 100 µM (inactive) | > 100 µM (inactive) | > 100 µM (inactive) | > 100 | > 100 µM (inactive) | > 100 µM (inactive) | > 100 µM (inactive) | > 100 µM (inactive) | > 100 µM (inactive) | > 100 µM (inactive) | > 100 µM (inactive) | –
6 | CCOn1c(C2(CC3CCN(C(=O)c4ccccc4)CC3)OCCO2)cc2ccccc21 | 18.9 µM (inactive) | 15.8 µM (inactive) | 15 µM (inactive) | 20.8 µM (inactive) | 18.9 µM (inactive) | 11.9 µM (inactive) | 11.4 µM (inactive) | 16.5 µM (inactive) | 12.8 µM (inactive) | 16.9 µM (inactive) | 22.5 | 15.8 µM (inactive) | 15.5 µM (inactive) | 15.1 µM (inactive) | 16.7 µM (inactive) | 14.1 µM (inactive) | 19.3 µM (inactive) | 18.1 µM (inactive) | –
7 | O=C(NNc1ccccc1)/C(=C/c1ccc2c(c1)OCO2)NC(=O)c1ccccc1 | > 100 µM (inactive) | > 100 µM (inactive) | > 100 µM (inactive) | > 100 µM (inactive) | – | > 100 µM (inactive) | > 100 µM (inactive) | > 100 µM (inactive) | 55 µM (inactive) | – | > 100 | > 100 µM (inactive) | – | > 100 µM (inactive) | > 100 µM (inactive) | > 100 µM (inactive) | > 100 µM (inactive) | – | –
8 | Cc1ccnc2nc(-c3cccc4ccccc34)cc(O)c12 | 0.00296 µM (active) | 0.00542 µM (active) | 0.043 µM (active) | 0.0272 µM (active) | – | 0.000991 µM (active) | 0.000483 µM (active) | 0.011 µM (active) | 0.00989 µM (active) | 0.00237 µM (active) | 0.00434 | 0.0132 µM (active) | 0.149 µM (active) | 0.537 µM (active) | 0.0147 µM (active) | 0.0121 µM (active) | 0.00867 µM (active) | 0.035 µM (active) | 0.0141 µM (active)
9 | O=C1Cc2c([nH]c3ccccc23)-c2ccccc2N1 [PAULLONE] | 26 µM (inactive) | 16.7 µM (inactive) | 27.2 µM (inactive) | 49.5 µM (inactive) | – | 22.8 µM (inactive) | 19.5 µM (inactive) | 75.3 µM (inactive) | 17.1 µM (inactive) | – | 30.9 | 37.8 µM (inactive) | – | 33.7 µM (inactive) | 61.4 µM (inactive) | 34.7 µM (inactive) | 45.2 µM (inactive) | – | –
